# Reference: PubChem BioAssay AID2060890 (Molecular Pharmacology Branch, DTP, NCI, 2025)
# System: LG0703-F948-PDC complex spheroid viability
# Assay: Anticancer human tumor LG0703-F948-PDC patient-derived lung adenocarcinoma cell line growth inhibition [RAS]
# Details: for viability, T/C: stronger effect = lower value
# Summary of the method: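 Multi-cell-type spheroids: tumor cells plus HUVEC endothelial cells and mesenchymal stem cells. RAS-pathway inhibitors were combined with targeted agents, each dosed in half-log steps down from clinical Cmax, or from 10 microM when Cmax was unknown.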
# 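Also: spheroids exposed to agents for 7 days.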
# 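For viability, T/C in this document: 100% = DMSO vehicle wells.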
smiles,measurement,setting,value
CCN1CCN(Cc2ccc(Nc3ncc(F)c(-c4cc(F)c5nc(C)n(C(C)C)c5c4)n3)nc2)CC1 + CCn1c(-c2cccnc2C(C)OC)c2c3cc(ccc31)N1CCOC(CC(NC(=O)C(C(C)C)N(C)C(=O)C3(F)CCN(C(=O)C#CC(C)(C)N(C)C)CC3)C(=O)N3CCCC(N3)C(=O)OCC(C)(C)C2)C1,IC50,"curve of first compound, second compound 0.000949 µM",> 1000 nM
same,IC50,"curve of first compound, second compound 0.003 µM",> 1000 nM
same,IC50,"curve of first compound, second compound 0.00949 µM",> 1000 nM
same,IC50,"curve of first compound, second compound 0.03 µM",> 1000 nM
same,IC50,"curve of first compound, second compound 0.0949 µM",> 1000 nM
same,IC50,"curve of first compound, second compound 0.3 µM",< 3.16 nM
same,"viability, T/C","second compound 0.000949 µM, first compound 0.00316 µM",103%
same,"viability, T/C","second compound 0.000949 µM, first compound 0.01 µM",111%
same,"viability, T/C","second compound 0.000949 µM, first compound 0.0316 µM",91.9%
same,"viability, T/C","second compound 0.000949 µM, first compound 0.1 µM",81.8%
same,"viability, T/C","second compound 0.000949 µM, first compound 0.316 µM",79.4%
same,"viability, T/C","second compound 0.000949 µM, first compound 1 µM",80.5%
same,"viability, T/C","second compound 0.003 µM, first compound 0.00316 µM",101%
same,"viability, T/C","second compound 0.003 µM, first compound 0.01 µM",97.3%
same,"viability, T/C","second compound 0.003 µM, first compound 0.0316 µM",81.1%
same,"viability, T/C","second compound 0.003 µM, first compound 0.1 µM",104%
same,"viability, T/C","second compound 0.003 µM, first compound 0.316 µM",111%
same,"viability, T/C","second compound 0.003 µM, first compound 1 µM",76.8%
same,"viability, T/C","second compound 0.00949 µM, first compound 0.00316 µM",101%
same,"viability, T/C","second compound 0.00949 µM, first compound 0.01 µM",97.2%
same,"viability, T/C","second compound 0.00949 µM, first compound 0.0316 µM",93%
same,"viability, T/C","second compound 0.00949 µM, first compound 0.1 µM",108%
same,"viability, T/C","second compound 0.00949 µM, first compound 0.316 µM",82.4%
same,"viability, T/C","second compound 0.00949 µM, first compound 1 µM",94.8%
same,"viability, T/C","second compound 0.03 µM, first compound 0.00316 µM",96.9%
same,"viability, T/C","second compound 0.03 µM, first compound 0.01 µM",98%
same,"viability, T/C","second compound 0.03 µM, first compound 0.0316 µM",95.5%
same,"viability, T/C","second compound 0.03 µM, first compound 0.1 µM",75.4%
same,"viability, T/C","second compound 0.03 µM, first compound 0.316 µM",81.2%
same,"viability, T/C","second compound 0.03 µM, first compound 1 µM",79%
same,"viability, T/C","second compound 0.0949 µM, first compound 0.00316 µM",90.7%
same,"viability, T/C","second compound 0.0949 µM, first compound 0.01 µM",86.8%
same,"viability, T/C","second compound 0.0949 µM, first compound 0.0316 µM",86.3%
same,"viability, T/C","second compound 0.0949 µM, first compound 0.1 µM",90.1%
same,"viability, T/C","second compound 0.0949 µM, first compound 0.316 µM",84.8%
same,"viability, T/C","second compound 0.0949 µM, first compound 1 µM",74.8%
same,"viability, T/C","second compound 0.3 µM, first compound 0.00316 µM",54.6%
same,"viability, T/C","second compound 0.3 µM, first compound 0.01 µM",40%
same,"viability, T/C","second compound 0.3 µM, first compound 0.0316 µM",56.4%
same,"viability, T/C","second compound 0.3 µM, first compound 0.1 µM",54.7%
same,"viability, T/C","second compound 0.3 µM, first compound 0.316 µM",59.8%
same,"viability, T/C","second compound 0.3 µM, first compound 1 µM",54.5%
CC(=O)OC12COC1CC(O)C1(C)C(=O)C(O)C3=C(C)C(OC(=O)C(O)C(NC(=O)OC(C)(C)C)c4ccccc4)CC(O)(C(OC(=O)c4ccccc4)C21)C3(C)C (stereo unspecified),"viability, T/C",compound 0.0316 µM,37.1% [middle of 4 runs]
same,"viability, T/C",compound 0.1 µM,33.9% [middle of 4 runs]
same,"viability, T/C",compound 0.316 µM,39.8% [middle of 4 runs]
same,"viability, T/C",compound 1 µM,39.7% [middle of 4 runs]
same,"viability, T/C",compound 3.16 µM,43.2% [middle of 4 runs]
same,"viability, T/C",compound 10 µM,44.4% [middle of 4 runs]
same,IC50,curve of compound,< 31.6 nM
NC1c2ccccc2OC12CCN(c1cnc3c(N4CCCc5ncccc54)n[nH]c3n1)CC2 (stereo unspecified) + C#Cc1c(F)ccc2cc(O)cc(-c3ncc4c(N5CC6CCC(C5)N6)nc(OCC56CCCN5CC(F)C6)nc4c3F)c12,IC50,"curve of first compound, second compound 0.0316 µM",43.3 nM
same,IC50,"curve of first compound, second compound 0.1 µM",< 31.6 nM
same,IC50,"curve of first compound, second compound 0.316 µM",< 31.6 nM
same,IC50,"curve of first compound, second compound 1 µM",< 31.6 nM
same,IC50,"curve of first compound, second compound 3.16 µM",< 31.6 nM
same,IC50,"curve of first compound, second compound 10 µM",< 31.6 nM
same,"viability, T/C","second compound 0.0316 µM, first compound 0.0316 µM",56.9%
same,"viability, T/C","second compound 0.0316 µM, first compound 0.1 µM",32.3%
same,"viability, T/C","second compound 0.0316 µM, first compound 0.316 µM",14.9%
same,"viability, T/C","second compound 0.0316 µM, first compound 1 µM",16.3%
same,"viability, T/C","second compound 0.0316 µM, first compound 3.16 µM",5.44%
same,"viability, T/C","second compound 0.0316 µM, first compound 10 µM",2.29%
same,"viability, T/C","second compound 0.1 µM, first compound 0.0316 µM",48.8%
same,"viability, T/C","second compound 0.1 µM, first compound 0.1 µM",27.7%
same,"viability, T/C","second compound 0.1 µM, first compound 0.316 µM",16.5%
same,"viability, T/C","second compound 0.1 µM, first compound 1 µM",8.26%
same,"viability, T/C","second compound 0.1 µM, first compound 3.16 µM",4.2%
same,"viability, T/C","second compound 0.1 µM, first compound 10 µM",2.16%
same,"viability, T/C","second compound 0.316 µM, first compound 0.0316 µM",43.7%
same,"viability, T/C","second compound 0.316 µM, first compound 0.1 µM",30.5%
same,"viability, T/C","second compound 0.316 µM, first compound 0.316 µM",14.4%
same,"viability, T/C","second compound 0.316 µM, first compound 1 µM",6.72%
same,"viability, T/C","second compound 0.316 µM, first compound 3.16 µM",4.41%
same,"viability, T/C","second compound 0.316 µM, first compound 10 µM",2.49%
same,"viability, T/C","second compound 1 µM, first compound 0.0316 µM",28.2%
same,"viability, T/C","second compound 1 µM, first compound 0.1 µM",21.9%
same,"viability, T/C","second compound 1 µM, first compound 0.316 µM",9.98%
same,"viability, T/C","second compound 1 µM, first compound 1 µM",6.62%
same,"viability, T/C","second compound 1 µM, first compound 3.16 µM",3.17%
same,"viability, T/C","second compound 1 µM, first compound 10 µM",1.84%
same,"viability, T/C","second compound 3.16 µM, first compound 0.0316 µM",28.2%
same,"viability, T/C","second compound 3.16 µM, first compound 0.1 µM",15.1%
same,"viability, T/C","second compound 3.16 µM, first compound 0.316 µM",11.1%
same,"viability, T/C","second compound 3.16 µM, first compound 1 µM",6.14%
same,"viability, T/C","second compound 3.16 µM, first compound 3.16 µM",4.26%
same,"viability, T/C","second compound 3.16 µM, first compound 10 µM",1.29%
same,"viability, T/C","second compound 10 µM, first compound 0.0316 µM",21%
same,"viability, T/C","second compound 10 µM, first compound 0.1 µM",13.5%
same,"viability, T/C","second compound 10 µM, first compound 0.316 µM",5.38%
same,"viability, T/C","second compound 10 µM, first compound 1 µM",2.35%
same,"viability, T/C","second compound 10 µM, first compound 3.16 µM",2.25%
same,"viability, T/C","second compound 10 µM, first compound 10 µM",0.66%
